In US5138101A, “Recovery of high-boiling aldehydes from rhodium-catalyzed hydroformylation processes” (Eastman Kodak Company, priority 1991, dated 1992):

Key:
[1] = Extraction and back-extraction with p-diisopropylbenzene or 1,7-octadiene: rhodium concentration in both phases, composition of extraction solution; format: physicochemical
Description: Examples […] illustrate yet another embodiment of the process of the present invention wherein extraction solution containing dissolved rhodium is back-extracted with either hydroformylation solvent or olefinic feedstock to reduce the concentration of rhodium in the extraction solution.
The general procedure described in Examples 31-48 was used to extract 60.5 mL of hydroformylation product solution obtained by the hydroformylation of 1,7 octadiene in the presence of a catalyst system comprising rhodium and BISBI phosphine (Reference Example 9). […] The extraction flask was charged with the hydroformylation product solution, 37 mL methanol, 12 mL water and […] [Na] provided as sodium oleate.
For Example 88, the extraction mixture was stirred at room temperature for 30 minutes and then drained into a calibrated, addition funnel and allowed to stand for about five minutes to permit phase separation. The volume of the hydroformylation product solution (organic) phase was 45 mL and the volume of the extraction solution phase was 65 ml. Samples of each phase were taken for rhodium and product composition analyses.
For Example 89, the extraction solution phase separated in Example 88 was added to a clean 250 mL flask along with 30 mL of p-diisopropylbenzene and the mixture was stirred at 50° C. for 30 minutes, was allowed to stand at 50° C. for about 5 minutes to permit phase separation and then each phase was separated and analyzed for composition and rhodium concentration.
For Example 90, the extraction solution separated in Example 89 was added to a clean 250 mL flask along with another 30 mL of p-diisopropylbenzene hydroformylation solvent. The mixture was agitated at 50° C. for thirty minutes, allowed to stand at 50° C. for 5 minutes to permit phase separation and each phase was analyzed for composition and rhodium concentration.
This scheme would be useful in a counter-current extraction method for recycling recovered hydroformylation product solution as well as in using the olefinic feed to the reactor as a back extraction solvent for recovering soluble rhodium from the methanol/water extract.
Example 91 was carried out using the procedure described in Examples 88. The flask was charged with 62 mL of a hydroformylation product solution (Reference Example 10) having a rhodium concentration 166 mg/L and containing 3.01 g of C9-enal, 12.69 g of C10-dial and 37.84 grams of p-diisopropylbenzene. Methanol (37 ml), water (16 ml) and 78 mg Na (as sodium 2-ethylhexanoate) were added to the flask. This mixture was stirred at 50° C. for 30 minutes and then allowed to stand for 5 minutes at 50° C. to permit phase separation. The hydroformylation product solution (organic) phase and the extraction solution phase were both sampled and analyzed for rhodium concentration. The 2 phases were drained into a clean, graduated addition funnel and the volumes of the two phases were measured. The volume of the organic layer was 43 mL and the extraction solution layer was 62 mL.
For Example 92, the extraction solution phase produced in Example 91 was added to a clean, 250 mL flask along with 30 mL of p-diisopropylbenzene and the mixture was stirred at 50° C. for 30 minutes and then allowed to separate into two phases. The two phases were analyzed for rhodium concentration and composition. The mixture was drained into a clean addition funnel to separate the two phases. For Example 93, the extraction solution phase of Example 92 and 30 mL of 1,7-octadiene were added to a clean, 250 mL flask. This mixture was stirred at 50° C. for 30 minutes and then allowed to separate into two phases which were analyzed for rhodium concentration.
The amounts (g) of C9-enal, C10-dial in the sample of hydroformylation product solution initially extracted and in the methanol/water extraction solutions resulting from Examples 91, 92 and 93 are given in Table XIII. The ratio given in Table XIII is the weight ratio of C10-dial:C9-enal. […]

[2] = Rhodium concentration in the extraction solution phase after extraction, with and without sodium carboxylate salt; format: physicochemical; conditions: for Rh Conc.: extraction solution phase
Description: Each experiment employed an extraction temperature of 50° C., an agitation period of 30 minutes and a phase separation period of 5 minutes followed by sampling of the extraction solution phase. One mL aliquots of the lower, extraction solution phase was sampled for Rh analysis.
The results of these experiments are shown in Table IV wherein Na Conc. and Rh Conc. are the sodium [Na] and rhodium [Rh] concentrations in mg/L in the extraction solution phase. Also set forth in Table IV are the partition coefficients obtained for the C9-enal isomers, C10-dial isomers and the p diisopropylbenzene hydroformylation solvent (H.S.) in each example.
[…] […] The extractions were carried out at 50° C. using 62 mL of each hydroformylation product solution and 50 mL of an extraction mixture consisting of a 3:1 volume ratio of methanol and water.
Each extraction employed an agitation period of 30 minutes and a phase separation period of 5 minutes followed by sampling of the extraction solution phase. One mL aliquots of the lower, extraction solution phase was sampled for Rh analysis. […]

[3] = Example 88, initial extraction, sodium oleate
[4] = Example 89, first back-extraction, p-diisopropylbenzene, 50° C.
[5] = Example 90, second back-extraction, p-diisopropylbenzene, 50° C.
[6] = Example 91, initial extraction, sodium 2-ethylhexanoate, 50° C.
[7] = Example 92, back-extraction, p-diisopropylbenzene, 50° C.
[8] = Example 94, initial extraction, no salt, 25° C.
[9] = Example 95, back-extraction, p-diisopropylbenzene, 50° C.

## [Rh] [Rh, rhodium]
[1]; [3]
  Rhodium Concentration, Extraction Solution Phase: 5.2 mg Rh per liter
  Rhodium Concentration, Organic Phase: 235 mg Rh per liter
[1]; [4]
  Rhodium Concentration, Extraction Solution Phase: 1.6 mg Rh per liter
  Rhodium Concentration, Organic Phase: 7.2 mg Rh per liter
[1]; [5]
  Rhodium Concentration, Extraction Solution Phase: 1.0 mg Rh per liter
  Rhodium Concentration, Organic Phase: 1.2 mg Rh per liter
[1]; [6]
  Rhodium Concentration, Extraction Solution Phase: 6.2 mg Rh per liter
  Rhodium Concentration, Organic Phase: 216 mg Rh per liter
[1]; [7]
  Rhodium Concentration, Extraction Solution Phase: 1.0 mg Rh per liter
  Rhodium Concentration, Organic Phase: 7.0 mg Rh per liter
[1]; Example 93, back-extraction, 1,7-octadiene, 50° C.
  Rhodium Concentration, Organic Phase: < 1 mg Rh per liter
[1]; Example 93, back-extraction, 1,7-octadiene, 50° C., listed as Rhodium
  Rhodium Concentration, Extraction Solution Phase: < 1 mg Rh per liter
[1]; Example 93, back-extraction, 1,7-octadiene, 50° C., listed as rhodium
  Rhodium Concentration, Extraction Solution Phase: below detection limits
[1]; [8]
  Rhodium Concentration, Extraction Solution Phase: 37 mg Rh per liter
  Rhodium Concentration, Organic Phase: 195 mg Rh per liter
[1]; [9]
  Rhodium Concentration, Extraction Solution Phase: 33 mg Rh per liter
  Rhodium Concentration, Organic Phase: 24 mg Rh per liter
[2]; Example 31, 50° C., Na 0
  Rh Conc. in extraction solution phase: 120 mg/L
[2]; Example 32, Na 82 mg/L as 2-ethylhexanoate
  Rh Conc. in extraction solution phase: 54 mg/L
[2]; Example 33, Na 164 mg/L as 2-ethylhexanoate
  Rh Conc. in extraction solution phase: 37 mg/L
[2]; Example 34, Na 327 mg/L as 2-ethylhexanoate
  Rh Conc. in extraction solution phase: 28 mg/L
[2]; Example 35, Na 653 mg/L as 2-ethylhexanoate
  Rh Conc. in extraction solution phase: 20 mg/L
[2]; Example 36, Na 1307 mg/L as 2-ethylhexanoate
  Rh Conc. in extraction solution phase: 12 mg/L
[2]; Example 37, 50° C., Na 0
  Rh Conc. in extraction solution phase: 56 mg/L
[2]; Example 38, Na 82 mg/L as oleate
  Rh Conc. in extraction solution phase: 6 mg/L
[2]; Example 39, Na 164 mg/L as oleate
  Rh Conc. in extraction solution phase: 5 mg/L
[2]; Example 40, Na 327 mg/L as oleate
  Rh Conc. in extraction solution phase: 4 mg/L
[2]; Example 41, Na 653 mg/L as oleate
  Rh Conc. in extraction solution phase: 4 mg/L
[2]; Example 42, Na 1307 mg/L as oleate
  Rh Conc. in extraction solution phase: 3.6 mg/L
[2]; Example 43, 50° C., Na 0
  Rh Conc. in extraction solution phase: 72 mg/L
[2]; Example 44, Na 82 mg/L as n butyrate
  Rh Conc. in extraction solution phase: 39 mg/L
[2]; Example 45, Na 164 mg/L as n butyrate
  Rh Conc. in extraction solution phase: 32 mg/L
[2]; Example 46, Na 327 mg/L as n butyrate
  Rh Conc. in extraction solution phase: 25 mg/L
[2]; Example 47, Na 653 mg/L as n butyrate
  Rh Conc. in extraction solution phase: 22 mg/L
[2]; Example 48, Na 1307 mg/L as n butyrate
  Rh Conc. in extraction solution phase: 15 mg/L
[2]; Example 49, methanol/water 37/27 mL, Na 0
  Rh Conc. in extraction solution phase: 18.6 mg/L
[2]; Example 50, methanol/water 37/27 mL, Na 100 as oleate
  Rh Conc. in extraction solution phase: 2.6 mg/L
[2]; Example 52, Ref. Ex. 1 (BISBI), MeOH:water 3:1, 50° C., Na 0
  Rh Conc. in extraction solution phase: 120 mg/L
[2]; Example 53, Ref. Ex. 1 (BISBI), Na 82 mg/L
  Rh Conc. in extraction solution phase: 54 mg/L
[2]; Example 54, Ref. Ex. 1 (BISBI), Na 164 mg/L
  Rh Conc. in extraction solution phase: 37 mg/L
[2]; Example 55, Ref. Ex. 1 (BISBI), Na 327 mg/L
  Rh Conc. in extraction solution phase: 28 mg/L
[2]; Example 56, Ref. Ex. 11 (TCHP), Na 0
  Rh Conc. in extraction solution phase: 7.6 mg/L
[2]; Example 57, Ref. Ex. 11 (TCHP), Na 82 mg/L
  Rh Conc. in extraction solution phase: 5.2 mg/L
[2]; Example 58, Ref. Ex. 11 (TCHP), Na 164 mg/L
  Rh Conc. in extraction solution phase: 2.6 mg/L
[2]; Example 59, Ref. Ex. 11 (TCHP), Na 327 mg/L
  Rh Conc. in extraction solution phase: 1.4 mg/L
[2]; Example 60, Ref. Ex. 12 (TBP), Na 0
  Rh Conc. in extraction solution phase: 6.2 mg/L
[2]; Example 61, Ref. Ex. 12 (TBP), Na 82 mg/L
  Rh Conc. in extraction solution phase: 5.4 mg/L
[2]; Example 62, Ref. Ex. 12 (TBP), Na 164 mg/L
  Rh Conc. in extraction solution phase: 5.6 mg/L
[2]; Example 63, Ref. Ex. 12 (TBP), Na 327 mg/L
  Rh Conc. in extraction solution phase: 5.4 mg/L
[2]; Example 64, Ref. Ex. 7 (TPP), Na 0
  Rh Conc. in extraction solution phase: 7.6 mg/L
[2]; Example 65, Ref. Ex. 7 (TPP), Na 82 mg/L
  Rh Conc. in extraction solution phase: 2.0 mg/L
[2]; Example 66, Ref. Ex. 7 (TPP), Na 164 mg/L
  Rh Conc. in extraction solution phase: 2.2 mg/L
[2]; Example 67, Ref. Ex. 7 (TPP), Na 327 mg/L
  Rh Conc. in extraction solution phase: 1.8 mg/L
[2]; Example 68, Ref. Ex. 13 (TOP), Na 0
  Rh Conc. in extraction solution phase: 1.2 mg/L
[2]; Example 69, Ref. Ex. 13 (TOP), Na 82 mg/L
  Rh Conc. in extraction solution phase: 1.0 mg/L
[2]; Example 70, Ref. Ex. 13 (TOP), Na 164 mg/L
  Rh Conc. in extraction solution phase: < 1 mg/L
[2]; Example 71, Ref. Ex. 13 (TOP), Na 327 mg/L
  Rh Conc. in extraction solution phase: < 1 mg/L
[2]; Example 72, Ref. Ex. 26 (BISBI, TPP), Na 0
  Rh Conc. in extraction solution phase: 30 mg/L
[2]; Example 73, Ref. Ex. 26 (BISBI, TPP), Na 82 mg/L
  Rh Conc. in extraction solution phase: 10 mg/L
[2]; Example 74, Ref. Ex. 26 (BISBI, TPP), Na 164 mg/L
  Rh Conc. in extraction solution phase: 8.2 mg/L
[2]; Example 75, Ref. Ex. 26 (BISBI, TPP), Na 327 mg/L
  Rh Conc. in extraction solution phase: 6.8 mg/L
[2]; Example 76, Ref. Ex. 27 (BISBI, TCHP), Na 0
  Rh Conc. in extraction solution phase: 10 mg/L
[2]; Example 77, Ref. Ex. 27 (BISBI, TCHP), Na 82 mg/L
  Rh Conc. in extraction solution phase: 1.8 mg/L
[2]; Example 78, Ref. Ex. 27 (BISBI, TCHP), Na 164 mg/L
  Rh Conc. in extraction solution phase: 2.8 mg/L
[2]; Example 79
  Rh Conc.: < 1 mg [Rh] per liter
[2]; Example 80
  Rh Conc.: < 1 mg [Rh] per liter
[2]; Example 81
  Rh Conc.: 3.0 mg [Rh] per liter
[2]; Example 82
  Rh Conc.: < 1 mg [Rh] per liter
[2]; Example 83
  Rh Conc.: 2.0 mg [Rh] per liter
[2]; Example 84
  Rh Conc.: < 1 mg [Rh] per liter
[2]; Example 85
  Rh Conc.: < 1 mg [Rh] per liter
[2]; Example 86
  Rh Conc.: < 1 mg [Rh] per liter
[2]; Example 87
  Rh Conc.: 1.2 mg [Rh] per liter
